Earlier results in patent US9308212B2, “Compositions comprising alprazolam for treating primary insomnia and insomnia associated with anxiety states and process for preparing them” (LABORATORIOS BAGO S.A., priority 2008, dated 2016).

- Solubility of the amorphous form relative to the crystalline form: 10 times
Compound: CO[C@@H]1[C@@H](OC(N)=O)[C@@H](O)[C@H](Oc2ccc3c(O)c(NC(=O)c4ccc(O)c(CC=C(C)C)c4)c(=O)oc3c2C)OC1(C)C [amorphous novobiocine, novobiocine]
